The values below come from paper PMC3495945, “Org 214007-0: A Novel Non-Steroidal Selective Glucocorticoid Receptor Modulator with Full Anti-Inflammatory Properties and Improved Therapeutic Index” (PLoS ONE, 2012).

The term EC50 denotes the concentration that produces a half-maximal response. As a reminder, the IC50 is the concentration at which inhibition is half-maximal.

Assay [1] addresses T1, GR (Homo sapiens, UniProt P04150).
T1 sequence (P04150 1-777): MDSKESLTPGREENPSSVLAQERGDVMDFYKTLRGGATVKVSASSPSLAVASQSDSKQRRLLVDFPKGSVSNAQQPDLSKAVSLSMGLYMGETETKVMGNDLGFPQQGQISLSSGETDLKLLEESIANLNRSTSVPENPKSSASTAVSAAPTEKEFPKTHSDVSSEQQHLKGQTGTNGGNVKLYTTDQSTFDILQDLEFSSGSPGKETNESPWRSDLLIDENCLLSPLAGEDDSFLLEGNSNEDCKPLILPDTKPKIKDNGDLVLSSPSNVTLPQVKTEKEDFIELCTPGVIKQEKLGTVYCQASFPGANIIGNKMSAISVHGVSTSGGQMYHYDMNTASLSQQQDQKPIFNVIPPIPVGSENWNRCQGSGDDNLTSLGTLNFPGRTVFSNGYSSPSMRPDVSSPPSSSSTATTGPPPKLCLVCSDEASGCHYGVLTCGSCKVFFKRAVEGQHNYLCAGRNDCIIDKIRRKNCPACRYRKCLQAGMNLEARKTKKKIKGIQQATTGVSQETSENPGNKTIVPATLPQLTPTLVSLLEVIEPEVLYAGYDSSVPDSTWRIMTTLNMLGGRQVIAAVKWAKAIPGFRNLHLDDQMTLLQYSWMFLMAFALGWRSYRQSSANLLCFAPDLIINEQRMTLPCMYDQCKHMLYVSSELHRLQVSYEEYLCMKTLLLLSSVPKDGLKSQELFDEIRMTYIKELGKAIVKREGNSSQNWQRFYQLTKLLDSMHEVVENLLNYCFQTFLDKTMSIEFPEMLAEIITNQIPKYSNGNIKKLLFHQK
The assay can be described thus: CHO-GR B4.8 MMTV-luciferase induction of gene expression (agonistic). It counts as cell-based. The settings on record: for Max. eff., MMTV-luc induction: relative to maximal effect of prednisolone (100%). Set-up: expressed in transfected cells. An excerpt:
For monitoring both human steroid receptor agonistic as well as antagonistic activity of compounds, Chinese hamster ovary (CHO) K1 cells stably co-transfected with the specific human steroid receptor and its respective reporter construct were used (as previously described).
For human glucocorticoid receptor (GR)-specific activity CHO-GR B4.8 cells containing both recombinant human GR as well as a reporter construct consisting of the mouse mammary tumor virus (MMTV) promotor and the luciferase reporter gene, were used. Compound was incubated alone (in the agonistic setup) or with 50 nM dexamethasone (in the antagonistic setup) overnight. Hereafter, 200 µl medium was removed and 50 µl luciferine substrate solution from the LucLite luminescence kit (Packard, Meriden, USA) was added. […] Percentage maximal antagonistic efficacy was related to the maximal antagonistic efficacy of reference GR antagonist Org 34116. Similar procedures were followed for the other human steroid receptor assays (for more detailed information see Supportive Information) (SI text).
For human glucocorticoid receptor (GR)-specific activity CHO-GR B4.8 cells containing both recombinant human GR as well as a reporter construct consisting of the mouse mammary tumor virus (MMTV) promotor and the luciferase reporter gene, were used. Compound was incubated alone (in the agonistic setup) or with 50 nM dexamethasone (in the antagonistic setup) in microtiter white culture plates seeded with 2.4 x 10^4 cells / 200 µl Dulbecco’s MEM/Nutrient Mix F12 medium (Gibco) supplemented with 5% charcoal treated defined bovine calf serum supplement (DBCSS, Hyclone, Utah, USA), and 10 U/ml Penicillin-10μg/ml Streptomycin (GibcoBRL) overnight at 37°C in the dark under a humidified atmosphere flushed with 5% CO2 in air. Hereafter, 200 µl medium was removed and 50 µl luciferine substrate solution from the LucLite luminescence kit (Packard, Meriden, USA) was added. After 10 minutes (when cell lysis was complete) luminescence of each sample was counted using a Topcount microplate luminescence counter. Percentage maximal agonistic efficacy was related to the maximal efficacy of dexamethasone. Percentage maximal antagonistic efficacy was related to the maximal antagonistic efficacy of reference GR antagonist Org 34116. EC50 value was calculated by 4-parameter curve fitting using the effect of 6 compound concentrations.

Assay [2] concerns the target T1, GR. Kind of assay: U2OS GR.G9 IFNγ/TNFα-induced MCP-1 release (repression). Format: cell-based. The arrangement: expressed in transfected cells; host or cells: U2OS (U2OS GR.G9). The settings on record: for Max. eff., repression of MCP-1 release: IFNγ/TNFα, relative to prednisolone (100%). As for the experimental part:
To determine the repressive activity of GR ligands, cell line U2OS GR.G9, the human osteoblastic cell line U2OS, stably transfected with human GR, was used. Cells (10^4 cells/well) were incubated in 384-wells plates, in the presence of 50 ng/ml TNFα (R&D systems)/100 ng/ml IFNγ (Peprotech) and compound, for 18 hours. Hereafter, a mixture of two different antibodies to hMCP-1, one Eu-labeled and one APC-labeled, were added. One hour later the time-resolved fluorometric resonance energy transfer (TR-FRET) signal was measured. (for more detailed information see Supportive Information) (SI text).
U2OS GR.G9 cells (10^4 cells/well) in Dulbecco's MEM / HAM F12 medium supplemented with 5% charcoal treated bovine calf serum (Hyclone) (v/v) and Penicillin (10 U/ml) -Streptomycin (10 μg/ml) were incubated in 384-wells plates, in the presence of 50 ng/ml TNFα (R&D systems) / 100 ng/ml IFNγ (Peprotech) and compound, for 18 hours in a humidified atmosphere at 37°C under 6.5% CO2. Hereafter, a mixture of 2.2 nM anti-hMCP-1 labeled with fluorescent donor Europium (Eu) and 16.6 nM anti-hMCP-1 labeled with fluorescent acceptor Allophycocyanin (APC) was added to each well and left at roomtemperature for 1 hour. Finally, the time-resolved fluorometric resonance energy transfer (TR-FRET) signal was measured with the Victor^2TM V, 1420 Multilabel Counter (Wallac). Using 4-parameter curve fitting, IC50 values for the compounds were determined.

`C[C@]12C=CC(=O)C=C1CC[C@@H]1[C@@H]2[C@@H](O)C[C@@]2(C)[C@H]1CC[C@]2(O)C(=O)CO` [prednisolone, reference compound]: the “Max. eff., MMTV-luc induction” value in assay [1] came to 100%. For the same compound, in assay [2], the “Max. eff., repression of MCP-1 release” value is 100 (±9.6) %.
Take `Cc1nnsc1C(=O)N[C@H]1CCN2c3ccc(C#N)cc3[C@@H](C)c3ccccc3[C@@H]2C1` [Org 214007-0]: the EC50 in assay [1] (CHO cells co-transfected with human GR and MMTV-luciferase, mean (±SD), read-out: EC50, MMTV-luc induction) came to 5.1 nM. Also, the figures for the “Max. eff., MMTV-luc induction” value in assay [1] and in assay [1] (listed as Org) were 32% and 32 (±8.1) %, respectively. The same compound returned an IC50 in assay [2] (IFNγ (100 ng/ml)/TNFα (50 ng/ml), 18 hours) of 0.36 nM. In addition, the “Max. eff., repression of MCP-1 release” value in assay [2] is listed as 81%; in assay [2] (listed as Org) it was 81 (±16) %.
